The values below come from patent US20150376198A1, “MODULATORS OF VASOPRESSIN RECEPTORS WITH THERAPEUTIC POTENTIAL” (priority 2013, published 2015).

Each structure is given as a SMILES string. Read-outs that look alike come from different tables or passages of the source.

Assay [1] has as its target T1, OT receptor (Homo sapiens, UniProt P30559).
T1 sequence (P30559 1-389): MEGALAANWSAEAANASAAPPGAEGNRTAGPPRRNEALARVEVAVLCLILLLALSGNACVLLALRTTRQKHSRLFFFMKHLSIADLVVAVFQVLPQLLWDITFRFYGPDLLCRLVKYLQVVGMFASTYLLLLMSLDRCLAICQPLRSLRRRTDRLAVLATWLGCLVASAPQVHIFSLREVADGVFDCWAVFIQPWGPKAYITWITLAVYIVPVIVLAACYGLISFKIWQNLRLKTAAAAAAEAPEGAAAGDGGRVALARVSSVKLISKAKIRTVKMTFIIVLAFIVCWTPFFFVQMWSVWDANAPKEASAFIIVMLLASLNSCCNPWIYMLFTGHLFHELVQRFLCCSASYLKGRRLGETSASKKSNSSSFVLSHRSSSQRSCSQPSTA
Kind of assay: OT receptor binding (primary binding at 10 μM and Ki). As to conditions: for inhibition at 10 µM: read-out: OT binding, mean % inhibition. The method, then:
(§1) The default concentration for primary binding experiments was 10 μM.
(§2) See Examples for further details.

For assay [2], the target named is T2, human V1a receptor (Homo sapiens, UniProt P37288).
T2 construct: expressed in transfected cells; host or cells: CHO cells (G418-selected hV1a cell line)
Kind of assay: Vasopressin V1a receptor binding assay (3H-AVP competition, CHO cells). As to conditions: for inhibition at 10 µM: read-out: V1A binding, mean % inhibition. Here is the method:
(§3) Data represent Ki values (nM) or mean % inhibition (indicated as %) for exemplary compounds of formula (I) tested versus receptor subtypes.
as §1
Vasopressin V1a Receptor Binding Assay.
A cell line expressing the human Via receptor in CHO cells is used. The hV1a cDNA sequence is described by Thibonnier et al., (1994), and the expression method is the same as described by Morel et al. (1992). The hV1a cell line is grown in alpha-MEM with 10% fetal bovine serum and 250 ug/ml G418 (Gibco, Grand Island, N.Y., USA). For competitive binding assay, hV1a cells are plated into 6-well culture plate at 1:10 dilution from a confluency flask, and maintained in culture for at least two days. Culture medium is then removed, cells washed with 2 ml binding buffer (35 mM Hepes, 0.25% BSA, 1× DMEM, PH=7.0). To each well, 990 μl binding buffer containing 1 nM 3H-AVP is added, followed by 10 μl series diluted Example compounds dissolved in DMSO. All incubations are done in triplicate and dose-inhibition curves consisting of total binding (DMSO) and 5 concentrations (0.1, 1.0, 10, 100, and 1000 nM) of test agents encompassing the IC50. 100 nM cold AVP (Sigma) is used to assess non-specific binding. Cells are incubated for 45 minutes at 37° C., assay mixture is removed and each well is washed three times with PBS (pH=7.4). 1 ml 2% SDS was added per well, plates were let sit for 30 minutes. The whole content of a well is transferred to a scintillation vial. Each well is rinsed with 0.5 ml PBS which is then added to the corresponding vial. Scintillation fluid (Ecoscint) is then added at 3 ml per vial. Samples are counted in a liquid scintillation counter (Beckman LS3801). IC50 values are calculated by Prism Curve fitting software.

Assay [3] deals with V2 receptor (Homo sapiens, UniProt P30518). In words: V2 receptor binding (primary binding at 10 μM and Ki). As to conditions: for inhibition at 10 µM: read-out: V2 binding, mean % inhibition. The method, then: as §3, §1, §2
Chain of V2 receptor (P30518 whole entry): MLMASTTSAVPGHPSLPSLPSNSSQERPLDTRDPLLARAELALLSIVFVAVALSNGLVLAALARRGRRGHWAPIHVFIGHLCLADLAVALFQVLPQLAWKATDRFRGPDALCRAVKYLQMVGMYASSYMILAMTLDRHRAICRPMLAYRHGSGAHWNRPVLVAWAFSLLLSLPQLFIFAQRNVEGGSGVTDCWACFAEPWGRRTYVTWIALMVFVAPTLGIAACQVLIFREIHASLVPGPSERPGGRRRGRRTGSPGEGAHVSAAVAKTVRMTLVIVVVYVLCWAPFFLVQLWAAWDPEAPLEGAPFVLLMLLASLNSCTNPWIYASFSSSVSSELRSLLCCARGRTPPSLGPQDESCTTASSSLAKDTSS

T2 sequence (P37288 whole entry): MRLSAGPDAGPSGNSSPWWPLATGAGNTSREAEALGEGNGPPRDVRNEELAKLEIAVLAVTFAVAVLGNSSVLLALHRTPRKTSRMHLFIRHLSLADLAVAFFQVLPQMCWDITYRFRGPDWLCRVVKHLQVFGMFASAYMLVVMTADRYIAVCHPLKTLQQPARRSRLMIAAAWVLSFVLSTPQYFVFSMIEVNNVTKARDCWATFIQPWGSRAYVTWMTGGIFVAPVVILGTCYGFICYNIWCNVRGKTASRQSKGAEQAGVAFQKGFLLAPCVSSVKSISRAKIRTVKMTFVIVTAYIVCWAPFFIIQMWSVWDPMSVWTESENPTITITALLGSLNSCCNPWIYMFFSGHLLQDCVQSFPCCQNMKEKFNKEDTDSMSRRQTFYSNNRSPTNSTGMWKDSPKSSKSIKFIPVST

With `CCN(C(=O)N1CCN(c2ccccc2C)CC1)c1ccc(OC)cc1` [Compound 2], the inhibitory constant (Ki) (in general, the equilibrium dissociation constant of an inhibitor or competing ligand from its target) came out at 13 nM in assay [1] (read-out: OT binding Ki) and 10 nM in assay [2]. In addition, the inhibition (as a rule, the drop in the measured response relative to a control, in per cent) at 10 µM in assay [3] (at 10 μM) worked out at 33.6%.
As for `COc1ccc(N(CC2CC2)C(=O)N2CCN(c3ccccc3C)CC2)cc1` [Compound 3], the Ki in assay [1] (read-out: OT binding Ki) was 1 nM; in assay [2], 0.9 nM; in assay [3] it was 708 nM.
As for `COCCN(C(=O)N1CCN(c2ccccc2C)CC1)c1ccc(OC)cc1` [Compound 4], the inhibition constant Ki in assay [1] (read-out: OT binding Ki) worked out at 21 nM; in assay [2] it was 10 nM. Further, the inhibition at 10 µM in assay [3] (at 10 μM) was 24.5%.
For `Cc1ccccc1N1CCN(C(=O)N(CC2CC2)CC2CCCO2)CC1` (stereo not drawn) [Compound 5], in that order: 326 nM, 785 nM and 17.7%.
With `CCN(C(=O)N1CCN(c2ncccc2C(F)(F)F)CC1)c1ccc(OC)cc1` [Compound 6], the figures for the inhibition constant Ki in assay [1] (read-out: OT binding Ki) and in assay [2] were 45 nM and 113 nM, respectively. The inhibition at 10 µM in assay [3] (at 10 μM) was determined as 33%.
As for `CCN(C(=O)N1CCN(C(=O)OC(C)(C)C)CC1)c1ccc(OC)cc1` [Compound 10], the inhibition at 10 µM in assay [1] (at 10 μM) was determined as 17.1%; in assay [2] it was 2.2%.
In the case of `Cc1cc(C(=O)N(CC2CC2)CC2CCCO2)ccc1CNC(=O)N1CCN(Cc2cc(O)cc(O)c2)CC1` (stereo not drawn) [Compound 13], the inhibition at 10 µM in assay [1] (at 10 μM) turned out to be 16.1%; in assay [3] (at 10 μM) it was 13.6%.
On to `COc1ccc(-n2c(C)nnc2-c2ccc(CNC(=O)N3CCN(Cc4cc(O)cc(O)c4)CC3)c(C)c2)cn1` [Compound 14], for which the inhibition at 10 µM was determined as 19.6% in assay [1] (at 10 μM) and 5.8% in assay [3] (at 10 μM).
`O=C(OCc1ccccc1)N1CCC(C(=O)N(CC2CC2)CC2CCCO2)CC1` (stereo not drawn) [Compound 15]: the inhibition at 10 µM was 2.8% in assay [1] (at 10 μM), 19% in assay [2] and 12.8% in assay [3] (at 10 μM).
Turning to `CCN(C(=O)N1CCN(c2ncccc2Cl)CC1)c1ccc(OC)cc1` [Compound 16], the inhibitory constant (Ki) in assay [1] (read-out: OT binding Ki) came out at 2320 nM; in assay [2] it was 1160 nM. For the same molecule, the inhibition at 10 µM in assay [3] (at 10 μM) worked out at 12.7%.
In the case of `CCN(C(=O)N1CCN(c2ccccn2)CC1)c1ccc(OC)cc1` [Compound 17], the Ki in assay [1] (read-out: OT binding Ki) amounted to 118 nM; in assay [2], 79 nM. Also, the inhibition at 10 µM in assay [3] (at 10 μM) was found to be 17.9%.
For the molecule `CCN(C(=O)C1CCN(C(=O)OCc2ccccc2)CC1)c1ccc(OC)cc1` [Compound 18], the inhibition at 10 µM in assay [1] came out at 2.8%; in assay [2] it was 19%; in assay [3] it was 12.8%.
With `CCN(C(=O)N1CCN(c2ncccc2C#N)CC1)c1ccc(OC)cc1` [Compound 19], the Ki in assay [1] (read-out: OT binding Ki) was found to be 757 nM; in assay [2] it was 880 nM. In assay [3] (at 10 μM), the inhibition at 10 µM amounted to 5.7%.
Taken in the same sequence, the figures for `CCN(C(=O)N1CCCN(c2ncccc2C(F)(F)F)CC1)c1ccc(OC)cc1` [Compound 20] were 329 nM, 851 nM and 33%.
`CCN(C(=O)N1CCN(c2ncccc2C)CC1)c1ccc(OC)cc1` [Compound 21]: the inhibitory constant (Ki) in assay [1] (read-out: OT binding Ki) came out at 204 nM; in assay [2], 116 nM. For the same molecule, the inhibition at 10 µM in assay [3] (at 10 μM) was determined as 24.3%.
Consider `CCN(C(=O)N1CCN(c2ncccn2)CC1)c1ccc(OC)cc1` [Compound 22], for which the inhibition at 10 µM in assay [1] (at 10 μM) came to 27.7%; in assay [3] (at 10 μM), 6.6%. The inhibition constant Ki in assay [2] (read-out: V1A binding Ki) is 1590 nM.
Regarding `CCN(C(=O)C1CCN(c2ncccc2C(F)(F)F)CC1)c1ccc(OC)cc1` [Compound 24], the inhibition constant (Ki) is 265 nM in assay [1] (read-out: OT binding Ki) and 1170 nM in assay [2]. The inhibition at 10 µM in assay [3] (at 10 μM) was 23.3%.
For `CCN(C(=O)N1CCN(C(=O)C23CC4CC(CC(C4)C2)C3)CC1)c1ccc(OC)cc1` [Compound 25], the inhibition at 10 µM in assay [1] (at 10 μM) amounted to 40.7%; in assay [3] (at 10 μM), 40.4%. Besides, in assay [2] (read-out: V1A binding Ki), the Ki was 3880 nM.
`Cc1ccc(N(CC2CC2)C(=O)N2CCN(c3ccccc3C)CC2)cc1` [Compound 26]: the Ki is 4.8 nM in assay [1] (read-out: OT binding Ki), 3 nM in assay [2] and 1860 nM in assay [3].
Taken in the same sequence, the figures for `Cc1ccccc1N1CCN(C(=O)N(CC2CC2)c2ccc(Cl)cc2)CC1` [Compound 27] were 2.3 nM, 1 nM and 3780 nM.
Taken in the same sequence, the figures for `COc1ccccc1N(CC1CC1)C(=O)N1CCN(c2ccccc2C)CC1` [Compound 28] were 51 nM, 107 nM and 5010 nM.
Take `Cc1ccccc1N1CCN(C(=O)N(CC2CC2)c2ccc(OC(F)(F)F)cc2)CC1` [Compound 29]: the inhibitory constant (Ki) was 61 nM in assay [1] (read-out: OT binding Ki), 12 nM in assay [2] and 159 nM in assay [3].
For `COc1ccc(N(CC2CC2)C(=O)N2CCN(c3ccccc3C(F)(F)F)CC2)cc1` [Compound 30], in that order: 2.3 nM, 11 nM and 75 nM.
Taken in the same sequence, the figures for `COc1ccc(N(CC2CC2)C(=O)N2CCN(c3cc(Cl)ccc3C)CC2)cc1` [Compound 31] were 6 nM, 5 nM and 7340 nM.
For the molecule `COc1ccccc1N1CCN(C(=O)N(CC2CC2)c2ccc(OC(F)(F)F)cc2)CC1` [Compound 32], the Ki in assay [1] (read-out: OT binding Ki) is 2.3 nM; in assay [2], 11 nM; in assay [3], 1700 nM.
Taken in the same sequence, the figures for `COc1ccc(N(CC2CC2)C(=O)N2CCN(c3ncc(Cl)cc3Cl)CC2)cc1` [Compound 33] were 4.1 nM, 3 nM and 205 nM.
For the molecule `COc1ccc(N(CC2CC2)C(=O)C2CCN(Cc3ccccc3C(F)(F)F)C2)cc1` (stereo not drawn) [Compound 34], the Ki in assay [1] came out at 24.5 nM; in assay [2] it was 19 nM; in assay [3], 542 nM.
As for `COc1ccc(N(CC2CC2)C(=O)C2CCN(Cc3ccccc3Cl)C2)cc1` (stereo not drawn) [Compound 35], the figures for the Ki in assay [1] (read-out: OT binding Ki) and in assay [2] were 37.4 nM and 71 nM, respectively. Further, the inhibition at 10 µM in assay [3] (at 10 μM) was less than 50%.
